# In patent US8518460B2, “Use of total coumarins of cnidium fruit in preparing medicaments for treating psoriasis” (priority 2002, dated 2013):
# Test system: swelling of rat toes induced by egg-white
# Assay: Swelling of rat toes induced by egg-white injection
# Assay type: in vivo, rats
# Details: 0.3 g ointment per toe, repeated after 0.5 hour
# Experimental: 50 SD rats, 150 g±10 g, were divided randomly into five groups. The volume of the toes at the same side of rats among the 5 groups was measured. 10% of egg white was injected into the toes, 0.2 ml each toe. After that, rats of two groups were anointed respectively with 0.15 g and 0.3 g of an ointment of total coumarins (containing 10% total coumarins) at each toe. Rats of other two groups were respectively anointed with 0.3 g of a blank ointment and 0.3 g of an ointment of anthralin at each toe. The rest one group was treated nothing as a control. 0.5 hour later, the above treatment was repeated. At 1st, 2nd, 4th, and 6th hour the volume of the toes were measured. The difference of the volume was regarded as the degree of the swelling of the toes.
compound,measurement,setting,value
"O=C1c2c(O)cccc2Cc2cccc(O)c21 [Anthralin, anthralin]",Degree of toe swelling (volume increase),1 h,0.408 ± 0.201 mL
same,Degree of toe swelling (volume increase),2 h,0.391 ± 0.209 mL
same,Degree of toe swelling (volume increase),4 h,0.375 ± 0.189 mL
same,Degree of toe swelling (volume increase),6 h,0.351 ± 0.165 mL
